In PMC10006169, “A phase I trial of LXS196, a protein kinase C (PKC) inhibitor, for metastatic uveal melanoma” (British Journal of Cancer, 2023):

Tested on: patients with MUM
Test: Adverse events regardless of study drug relationship
Format: in vivo, human
Description: Routine safety assessments, including laboratory assessments, physical examinations, vital signs and electrocardiograms (ECGs), were conducted at regular intervals throughout the study and more frequently as needed following patient assessment by the treating physician. Adverse events (AEs) were assessed continuously according to the National Cancer Institute Common Terminology Criteria for Adverse Events (NCI-CTCAE) v4.03.

SMILES: CC1(N)CCN(c2cccnc2NC(=O)c2nc(-c3ncccc3C(F)(F)F)cnc2N)CC1 [LXS196]
- ALT increased, all grades (500 mg QD): 3 (27.3) n (%)
- ALT increased, grade ≥3 (500 mg QD): 1 (9.1) n (%)
- AST increased, all grades (500 mg QD): 4 (36.4) n (%)
- AST increased, grade ≥3 (500 mg QD): 1 (9.1) n (%)
- Abdominal pain upper, all grades (500 mg QD): 2 (18.2) n (%)
- Abdominal pain upper, grade ≥3 (500 mg QD): 0 n (%)
- Asthenia, all grades (500 mg QD): 4 (36.4) n (%)
- Asthenia, grade ≥3 (500 mg QD): 0 n (%)
- Blood creatinine increased, all grades (500 mg QD): 0 n (%)
- Blood creatinine increased, grade ≥3 (500 mg QD): 0 n (%)
- Constipation, all grades (500 mg QD): 2 (18.2) n (%)
- Constipation, grade ≥3 (500 mg QD): 0 n (%)
- Decreased appetite, all grades (500 mg QD): 4 (36.4) n (%)
- Decreased appetite, grade ≥3 (500 mg QD): 0 n (%)
- Dermatitis acneiform, all grades (500 mg QD): 1 (9.1) n (%)
- Dermatitis acneiform, grade ≥3 (500 mg QD): 0 n (%)
- Diarrhoea, all grades (500 mg QD): 5 (45.5) n (%)
- Diarrhoea, grade ≥3 (500 mg QD): 0 n (%)
- Dry skin, all grades (500 mg QD): 1 (9.1) n (%)
- Dry skin, grade ≥3 (500 mg QD): 0 n (%)
- Fatigue, all grades (500 mg QD): 1 (9.1) n (%)
- Fatigue, grade ≥3 (500 mg QD): 0 n (%)
- Hypotension, all grades (500 mg QD): 4 (36.4) n (%)
- Hypotension, grade ≥3 (500 mg QD): 3 (27.3) n (%)
- Nasopharyngitis, all grades (500 mg QD): 0 n (%)
- Nasopharyngitis, grade ≥3 (500 mg QD): 0 n (%)
- Nausea, all grades (500 mg QD): 8 (72.7) n (%)
- Nausea, grade ≥3 (500 mg QD): 0 n (%)
- Neutropenia, all grades (500 mg QD): 2 (18.2) n (%)
- Neutropenia, grade ≥3 (500 mg QD): 1 (9.1) n (%)
- Oedema peripheral, all grades (500 mg QD): 1 (9.1) n (%)
- Oedema peripheral, grade ≥3 (500 mg QD): 0 n (%)
- Patients with ≥1 AE, all grades (500 mg QD): 10 (90.9) n (%)
- Patients with ≥1 AE, grade ≥3 (500 mg QD): 4 (36.4) n (%)
- Rash, all grades (500 mg QD): 0 n (%)
- Rash, grade ≥3 (500 mg QD): 0 n (%)
- Vomiting, all grades (500 mg QD): 5 (45.5) n (%)
- Vomiting, grade ≥3 (500 mg QD): 0 n (%)
- ALT increased, all grades (800 mg QD): 0 n (%)
- ALT increased, grade ≥3 (800 mg QD): 0 n (%)
- AST increased, all grades (800 mg QD): 0 n (%)
- AST increased, grade ≥3 (800 mg QD): 0 n (%)
- Abdominal pain upper, all grades (800 mg QD): 0 n (%)
- Abdominal pain upper, grade ≥3 (800 mg QD): 0 n (%)
- Asthenia, all grades (800 mg QD): 0 n (%)
- Asthenia, grade ≥3 (800 mg QD): 0 n (%)
- Blood creatinine increased, all grades (800 mg QD): 0 n (%)
- Blood creatinine increased, grade ≥3 (800 mg QD): 0 n (%)
- Constipation, all grades (800 mg QD): 0 n (%)
- Constipation, grade ≥3 (800 mg QD): 0 n (%)
- Decreased appetite, all grades (800 mg QD): 0 n (%)
- Decreased appetite, grade ≥3 (800 mg QD): 0 n (%)
- Dermatitis acneiform, all grades (800 mg QD): 0 n (%)
- Dermatitis acneiform, grade ≥3 (800 mg QD): 0 n (%)
- Diarrhoea, all grades (800 mg QD): 1 (100) n (%)
- Diarrhoea, grade ≥3 (800 mg QD): 0 n (%)
- Dry skin, all grades (800 mg QD): 0 n (%)
- Dry skin, grade ≥3 (800 mg QD): 0 n (%)
- Fatigue, all grades (800 mg QD): 0 n (%)
- Fatigue, grade ≥3 (800 mg QD): 0 n (%)
- Hypotension, all grades (800 mg QD): 1 (100) n (%)
- Hypotension, grade ≥3 (800 mg QD): 1 (100) n (%)
- Nasopharyngitis, all grades (800 mg QD): 0 n (%)
- Nasopharyngitis, grade ≥3 (800 mg QD): 0 n (%)
- Nausea, all grades (800 mg QD): 1 (100) n (%)
- Nausea, grade ≥3 (800 mg QD): 0 n (%)
- Neutropenia, all grades (800 mg QD): 0 n (%)
- Neutropenia, grade ≥3 (800 mg QD): 0 n (%)
- Oedema peripheral, all grades (800 mg QD): 0 n (%)
- Oedema peripheral, grade ≥3 (800 mg QD): 0 n (%)
- Patients with ≥1 AE, all grades (800 mg QD): 1 (100) n (%)
- Patients with ≥1 AE, grade ≥3 (800 mg QD): 1 (100) n (%)
- Rash, all grades (800 mg QD): 0 n (%)
- Rash, grade ≥3 (800 mg QD): 0 n (%)
- Vomiting, all grades (800 mg QD): 0 n (%)
- Vomiting, grade ≥3 (800 mg QD): 0 n (%)
- ALT increased, all grades (1000 mg QD): 1 (25.0) n (%)
- ALT increased, grade ≥3 (1000 mg QD): 0 n (%)
- AST increased, all grades (1000 mg QD): 0 n (%)
- AST increased, grade ≥3 (1000 mg QD): 0 n (%)
- Abdominal pain upper, all grades (1000 mg QD): 0 n (%)
- Abdominal pain upper, grade ≥3 (1000 mg QD): 0 n (%)
- Asthenia, all grades (1000 mg QD): 0 n (%)
- Asthenia, grade ≥3 (1000 mg QD): 0 n (%)
- Blood creatinine increased, all grades (1000 mg QD): 0 n (%)
- Blood creatinine increased, grade ≥3 (1000 mg QD): 0 n (%)
- Constipation, all grades (1000 mg QD): 0 n (%)
- Constipation, grade ≥3 (1000 mg QD): 0 n (%)
- Decreased appetite, all grades (1000 mg QD): 0 n (%)
- Decreased appetite, grade ≥3 (1000 mg QD): 0 n (%)
- Dermatitis acneiform, all grades (1000 mg QD): 0 n (%)
- Dermatitis acneiform, grade ≥3 (1000 mg QD): 0 n (%)
- Diarrhoea, all grades (1000 mg QD): 4 (100) n (%)
- Diarrhoea, grade ≥3 (1000 mg QD): 0 n (%)
- Dry skin, all grades (1000 mg QD): 1 (25.0) n (%)
- Dry skin, grade ≥3 (1000 mg QD): 0 n (%)
- Fatigue, all grades (1000 mg QD): 3 (75.0) n (%)
- Fatigue, grade ≥3 (1000 mg QD): 0 n (%)
- Hypotension, all grades (1000 mg QD): 2 (50.0) n (%)
- Hypotension, grade ≥3 (1000 mg QD): 1 (25.0) n (%)
- Nasopharyngitis, all grades (1000 mg QD): 1 (25.0) n (%)
- Nasopharyngitis, grade ≥3 (1000 mg QD): 0 n (%)
- Nausea, all grades (1000 mg QD): 4 (100) n (%)
- Nausea, grade ≥3 (1000 mg QD): 0 n (%)
- Neutropenia, all grades (1000 mg QD): 0 n (%)
- Neutropenia, grade ≥3 (1000 mg QD): 0 n (%)
- Oedema peripheral, all grades (1000 mg QD): 0 n (%)
- Oedema peripheral, grade ≥3 (1000 mg QD): 0 n (%)
- Patients with ≥1 AE, all grades (1000 mg QD): 4 (100) n (%)
- Patients with ≥1 AE, grade ≥3 (1000 mg QD): 2 (50.0) n (%)
- Rash, all grades (1000 mg QD): 0 n (%)
- Rash, grade ≥3 (1000 mg QD): 0 n (%)
- Vomiting, all grades (1000 mg QD): 0 n (%)
- Vomiting, grade ≥3 (1000 mg QD): 0 n (%)
